From patent US10770169B2, “Method of providing a treatment to a subject based on a dynamic pathway map” (THE REGENTS OF THE UNIVERSITY OF CALIFORNIA, priority 2010, dated 2020)
Read-outs that look alike come from different tables or passages of the source.

Tests used:
[1] = system: luminal, basal, claudin-low and ERBB2AMP breast cancer cell lines; assay: Associations of clinically relevant subtypes and response (non-parametric ANOVA or t-test on GI50 ranks); assay type: cell-based, human; conditions: Table 6; most sensitive subtype, FDR p<0.20
Outline: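 Significance was set at FDR p<0.20 after combining p-values across three test sets. Subtype–response associations came from rank-based non-parametric ANOVA or t-tests on GI50. For three-class comparisons, post-hoc tests of each group against the rest identified the most sensitive group, with FDR correction.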

[2] = system: panel of 55 breast cancer cell lines; assay: Cell growth inhibition assay (Cell Titer Glo, 72 h, 9 doses; GI50, TGI, LC50); assay type: cell-based, human; conditions: Homo sapiens, read-out: GI50 (converted)

With `Cc1[nH]c2ccccc2c1CCNCc1ccc(/C=C/C(=O)NO)cc1` [LBH589] the Subtype specificity [1] was “Luminal”, the GI50 ([2]; 600MPE cell line, censored GI50 values) was 186 nM and the GI50 ([2]; AU565, AU565 cell line, censored GI50 values) was 105 nM. The GI50 ([2]; AU565, cell line AU565) was 105 nM, the GI50 ([2]; BT-20, BT20 cell line, censored GI50 values) was 389 nM and the GI50 ([2]; BT-20, cell line BT20) was 389 nM. The GI50 ([2]; BT-474, BT474 cell line, censored GI50 values) was 34.7 nM, the GI50 ([2]; BT-474, cell line BT474) was 34.7 nM and the GI50 ([2]; BT-483, BT483 cell line, censored GI50 values) was 72.4 nM. It also gave a GI50 ([2]; BT-483, cell line BT483) of 72.4 nM, a GI50 ([2]; CAMA-1, CAMA1 cell line, censored GI50 values) of 61.7 nM and a GI50 ([2]; CAMA-1, cell line CAMA1) of 61.7 nM. For the same molecule, the GI50 ([2]; HCC38, HCC38 cell line, censored GI50 values) was 35.5 nM, the GI50 ([2]; HCC38, cell line HCC38) was 35.5 nM and the GI50 ([2]; HCC70, HCC70 cell line, censored GI50 values) was 77.6 nM. The GI50 ([2]; HCC70, cell line HCC70) was 77.6 nM, the GI50 ([2]; HCC1143, HCC1143 cell line, censored GI50 values) was 83.2 nM and the GI50 ([2]; HCC1143, cell line HCC1143) was 83.2 nM. The GI50 ([2]; HCC1187, HCC1187 cell line, censored GI50 values) was 174 nM, the GI50 ([2]; HCC1187, cell line HCC1187) was 174 nM and the GI50 ([2]; HCC1419, HCC1419 cell line, censored GI50 values) was 58.9 nM. The GI50 ([2]; HCC1419, cell line HCC1419) was 58.9 nM, the GI50 ([2]; HCC1428, HCC1428 cell line, censored GI50 values) was 135 nM and the GI50 ([2]; HCC1428, cell line HCC1428) was 135 nM. The GI50 ([2]; HCC1500, HCC1500 cell line, censored GI50 values) was 162 nM, the GI50 ([2]; HCC1500, cell line HCC1500) was 162 nM and the GI50 ([2]; HCC1806, HCC1806 cell line, censored GI50 values) was 151 nM. It also gave a GI50 ([2]; HCC1806, cell line HCC1806) of 151 nM, a GI50 ([2]; HCC1937, HCC1937 cell line, censored GI50 values) of 191 nM and a GI50 ([2]; HCC1937, cell line HCC1937) of 191 nM. It also gave a GI50 ([2]; HCC1954, HCC1954 cell line, censored GI50 values) of 372 nM, a GI50 ([2]; HCC1954, cell line HCC1954) of 372 nM and a GI50 ([2]; HCC2185 cell line, censored GI50 values) of 69.2 nM. The GI50 ([2]; HCC3153 cell line, censored GI50 values) was 295 nM, the GI50 ([2]; MCF7, MCF7 cell line, censored GI50 values) was 79.4 nM and the GI50 ([2]; MCF7, cell line MCF7) was 79.4 nM. It also gave a GI50 ([2]; MDA-MB-134-VI, MDAMB134VI cell line, censored GI50 values) of 66.1 nM, a GI50 ([2]; MDA-MB-175-VII, MDAMB175VII cell line, censored GI50 values) of 389 nM and a GI50 ([2]; MDA-MB-361, MDAMB361 cell line, censored GI50 values) of 50.1 nM. The GI50 ([2]; MDA-MB-361, cell line MDAMB361) was 50.1 nM, the GI50 ([2]; MDA-MB-415, MDAMB415 cell line, censored GI50 values) was 39.8 nM and the GI50 ([2]; MDA-MB-415, cell line MDAMB415) was 39.8 nM. For the same molecule, the GI50 ([2]; MDA-MB-436, MDAMB436 cell line, censored GI50 values) was 251 nM, the GI50 ([2]; MDA-MB-436, cell line MDAMB436) was 251 nM and the GI50 ([2]; MDA-MB-453, MDAMB453 cell line, censored GI50 values) was 49 nM. It also gave a GI50 ([2]; MDA-MB-453, cell line MDAMB453) of 49 nM, a GI50 ([2]; MDA-MB-468, MDAMB468 cell line, censored GI50 values) of 234 nM and a GI50 ([2]; MDA-MB-468, cell line MDAMB468) of 234 nM. The GI50 ([2]; SK-BR-3, SKBR3 cell line, censored GI50 values) was 55 nM, the GI50 ([2]; SK-BR-3, cell line SKBR3) was 55 nM and the GI50 ([2]; SUM52PE, SUM52PE cell line, censored GI50 values) was 170 nM. The GI50 ([2]; SUM52PE, cell line SUM52PE) was 170 nM, the GI50 ([2]; SUM149PT, SUM149PT cell line, censored GI50 values) was 316 nM and the GI50 ([2]; SUM149PT, cell line SUM149PT) was 316 nM. It also gave a GI50 ([2]; SUM185PE, SUM185PE cell line, censored GI50 values) of 77.6 nM, a GI50 ([2]; SUM185PE, cell line SUM185PE) of 77.6 nM and a GI50 ([2]; SUM1315MO2, SUM1315MO2 cell line, censored GI50 values) of 251 nM. The GI50 ([2]; SUM-159-PT, SUM159PT cell line, censored GI50 values) was 132 nM, the GI50 ([2]; SUM-159-PT, cell line SUM159PT) was 132 nM and the GI50 ([2]; T47D, T47D cell line, censored GI50 values) was 151 nM. For the same molecule, the GI50 ([2]; T47D, cell line T47D) was 151 nM, the GI50 ([2]; UACC-812, UACC812 cell line, censored GI50 values) was 129 nM and the GI50 ([2]; UACC-812, cell line UACC812) was 129 nM. For the same molecule, the GI50 ([2]; ZR-75-1, ZR751 cell line, censored GI50 values) was 195 nM, the GI50 ([2]; ZR-75-1, cell line ZR751) was 195 nM and the GI50 ([2]; ZR-75B, ZR75B cell line, censored GI50 values) was 83.2 nM. It also gave a GI50 ([2]; ZR-75B, cell line ZR75B) of 83.2 nM, a GI50 ([2]; cell line 600MPE) of 186 nM and a GI50 ([2]; cell line HCC2185) of 69.2 nM. For the same molecule, the GI50 ([2]; cell line HCC3153) was 295 nM, the GI50 ([2]; cell line MDAMB134V) was 66.1 nM and the GI50 ([2]; cell line MDAMB175V) was 389 nM. The GI50 ([2]; cell line SUM1315MO) was 251 nM.
